Measured values reported in ChEMBL document CHEMBL1156471, “Targeting host cell furin proprotein convertases as a therapeutic strategy against bacterial toxins and viral pathogens” (J Biol Chem, 2007).
Activity calls are given as the source filed them. No cut-off for these calls is given here. Non-standard residues stand in square brackets, D forms with d. Residues, ends and D or L forms follow the SMILES beside them. βAla = NCCC(=O)O

How the values were obtained:
[1] = system: U-251; experiment: Protection against anthrax PA63-lethal toxin complex-induced cytotoxicity in human U251 cells at 20 uM at 400 ng/ml by MTT test; assay type: cell-based
[2] = system: Bacillus anthracis; experiment: Protection against Bacillus anthracis Sterne spores infected A/J mouse assessed as survival at 12.5 mg/kg, ip administered once daily for 6 days; assay type: functional; conditions: route intraperitoneal
[3] = system: Bacillus anthracis; experiment: Protection against Bacillus anthracis Sterne spores infected A/J mouse at 12.5 mg/kg, ip administered once daily for 6 days; assay type: functional; conditions: route intraperitoneal
[4] = system: Bacillus anthracis; experiment: Protection against Bacillus anthracis Sterne spores infected A/J mouse assessed as survival at 25 mg/kg, sc administered daily after 4 days post infection; assay type: functional; conditions: route subcutaneous
[5] = target: T1, Proprotein convertase subtilisin/kexin type 6 (Rattus norvegicus, UniProt Q63415)
T1 sequence (Q63415 whole entry): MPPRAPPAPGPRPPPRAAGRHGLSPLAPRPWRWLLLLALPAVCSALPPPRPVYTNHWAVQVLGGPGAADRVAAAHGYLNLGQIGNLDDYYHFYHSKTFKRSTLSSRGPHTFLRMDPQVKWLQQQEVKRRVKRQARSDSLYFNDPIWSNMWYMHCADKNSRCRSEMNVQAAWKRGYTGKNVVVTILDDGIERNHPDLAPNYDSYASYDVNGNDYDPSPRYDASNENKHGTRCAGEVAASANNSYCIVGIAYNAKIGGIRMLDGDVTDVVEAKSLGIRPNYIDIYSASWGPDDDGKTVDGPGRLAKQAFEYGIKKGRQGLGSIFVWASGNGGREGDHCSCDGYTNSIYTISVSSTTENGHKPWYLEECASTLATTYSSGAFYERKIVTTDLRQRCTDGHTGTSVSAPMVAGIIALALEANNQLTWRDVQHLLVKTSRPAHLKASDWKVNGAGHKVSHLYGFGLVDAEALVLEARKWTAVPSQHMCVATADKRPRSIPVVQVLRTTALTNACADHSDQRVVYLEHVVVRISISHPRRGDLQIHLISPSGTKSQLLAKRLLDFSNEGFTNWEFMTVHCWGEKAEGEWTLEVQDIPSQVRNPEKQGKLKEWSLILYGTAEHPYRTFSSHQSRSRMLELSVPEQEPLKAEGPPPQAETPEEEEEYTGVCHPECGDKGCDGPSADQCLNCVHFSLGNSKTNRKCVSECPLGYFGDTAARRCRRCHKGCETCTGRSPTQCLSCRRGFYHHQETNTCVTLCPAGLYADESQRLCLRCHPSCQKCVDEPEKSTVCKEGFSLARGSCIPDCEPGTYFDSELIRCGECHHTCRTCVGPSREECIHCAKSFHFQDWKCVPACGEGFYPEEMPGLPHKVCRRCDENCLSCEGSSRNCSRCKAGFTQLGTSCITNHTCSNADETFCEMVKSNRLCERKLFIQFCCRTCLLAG

[6] = target: T2, Furin (Homo sapiens, UniProt P09958)
[7] = target: T3, Proprotein convertase subtilisin/kexin type 4 (Homo sapiens, UniProt Q6UW60)
T3 sequence (Q6UW60 whole entry): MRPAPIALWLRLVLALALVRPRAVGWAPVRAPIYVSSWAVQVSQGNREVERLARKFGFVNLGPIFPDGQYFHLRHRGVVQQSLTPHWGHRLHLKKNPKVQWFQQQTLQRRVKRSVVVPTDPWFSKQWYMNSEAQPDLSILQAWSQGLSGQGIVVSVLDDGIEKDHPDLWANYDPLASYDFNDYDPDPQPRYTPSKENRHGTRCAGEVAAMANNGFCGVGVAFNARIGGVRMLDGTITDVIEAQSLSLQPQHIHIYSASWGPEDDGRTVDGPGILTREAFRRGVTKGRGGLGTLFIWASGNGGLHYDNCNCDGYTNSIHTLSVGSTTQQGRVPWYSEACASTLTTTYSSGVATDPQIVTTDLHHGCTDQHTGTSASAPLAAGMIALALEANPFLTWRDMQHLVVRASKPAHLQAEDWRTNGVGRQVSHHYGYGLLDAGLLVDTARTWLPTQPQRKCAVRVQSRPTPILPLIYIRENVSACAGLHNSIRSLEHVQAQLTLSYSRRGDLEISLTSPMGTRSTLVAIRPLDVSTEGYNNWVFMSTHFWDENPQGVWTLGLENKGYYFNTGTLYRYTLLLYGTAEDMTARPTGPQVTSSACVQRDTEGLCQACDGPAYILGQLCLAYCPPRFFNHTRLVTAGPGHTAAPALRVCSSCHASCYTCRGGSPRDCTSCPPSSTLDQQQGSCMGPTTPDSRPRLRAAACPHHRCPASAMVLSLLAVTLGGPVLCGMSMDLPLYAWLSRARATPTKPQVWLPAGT

[8] = target: Proprotein convertase subtilisin/kexin type 5 (Homo sapiens, UniProt Q92824)
[9] = target: T4, Proprotein convertase subtilisin/kexin type 7 (Homo sapiens, UniProt Q16549)
T4 sequence (Q16549 whole entry): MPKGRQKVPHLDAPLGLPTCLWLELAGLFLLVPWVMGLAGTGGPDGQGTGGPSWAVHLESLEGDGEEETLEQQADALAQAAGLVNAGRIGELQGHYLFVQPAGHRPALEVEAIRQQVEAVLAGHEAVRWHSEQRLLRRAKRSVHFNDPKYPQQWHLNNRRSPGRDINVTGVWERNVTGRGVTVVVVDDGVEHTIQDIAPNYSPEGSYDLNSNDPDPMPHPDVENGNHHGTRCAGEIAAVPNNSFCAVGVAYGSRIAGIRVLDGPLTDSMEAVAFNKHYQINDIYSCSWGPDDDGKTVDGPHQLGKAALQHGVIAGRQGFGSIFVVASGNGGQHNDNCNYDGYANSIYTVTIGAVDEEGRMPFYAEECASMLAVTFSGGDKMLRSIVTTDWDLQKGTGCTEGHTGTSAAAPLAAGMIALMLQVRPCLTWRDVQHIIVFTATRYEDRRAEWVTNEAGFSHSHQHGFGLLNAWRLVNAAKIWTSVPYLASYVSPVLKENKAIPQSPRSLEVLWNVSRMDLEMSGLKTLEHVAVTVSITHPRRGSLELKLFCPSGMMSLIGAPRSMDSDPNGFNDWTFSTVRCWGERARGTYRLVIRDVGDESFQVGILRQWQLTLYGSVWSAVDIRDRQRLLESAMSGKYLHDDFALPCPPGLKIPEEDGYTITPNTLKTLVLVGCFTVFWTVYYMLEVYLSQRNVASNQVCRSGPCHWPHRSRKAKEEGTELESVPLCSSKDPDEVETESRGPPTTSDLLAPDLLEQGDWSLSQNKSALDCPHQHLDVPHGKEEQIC

[10] = system: U-251; experiment: Inhibition of proprotein convertase-mediated anthrax protective antigen-83 processing in human U251 cells at 20 uM by Western blot; assay type: cell-based; conditions: Bacillus anthracis
[11] = system: RAW264.7; experiment: Cytotoxicity against mouse RAW264.7 cells =< 0.5 mM after 4 hrs by MTT assay; assay type: cell-based; conditions: raw264.7, 4 h
[12] = target: T2, Furin; experiment: Inhibition of furin-mediated Pseudomonas exotoxin A proteolysis by peptide cleavage reaction
[13] = system: Mus musculus; experiment: Protection against Pseudomonas exotoxin A-induced toxicity in C57BL/6 mouse assessed as survival at 12.5 mg/kg, ip once daily administered 1 hr prior to toxin challenge; assay type: functional; conditions: C57BL/6, ip, route intraperitoneal
[14] = system: U-251; experiment: Inhibition of proprotein convertase-dependent delivery of PA63-lethal toxin complex into cytosol in human U251 cells at 20 uM; assay type: cell-based; conditions: Bacillus anthracis

T2 sequence (P09958 whole entry): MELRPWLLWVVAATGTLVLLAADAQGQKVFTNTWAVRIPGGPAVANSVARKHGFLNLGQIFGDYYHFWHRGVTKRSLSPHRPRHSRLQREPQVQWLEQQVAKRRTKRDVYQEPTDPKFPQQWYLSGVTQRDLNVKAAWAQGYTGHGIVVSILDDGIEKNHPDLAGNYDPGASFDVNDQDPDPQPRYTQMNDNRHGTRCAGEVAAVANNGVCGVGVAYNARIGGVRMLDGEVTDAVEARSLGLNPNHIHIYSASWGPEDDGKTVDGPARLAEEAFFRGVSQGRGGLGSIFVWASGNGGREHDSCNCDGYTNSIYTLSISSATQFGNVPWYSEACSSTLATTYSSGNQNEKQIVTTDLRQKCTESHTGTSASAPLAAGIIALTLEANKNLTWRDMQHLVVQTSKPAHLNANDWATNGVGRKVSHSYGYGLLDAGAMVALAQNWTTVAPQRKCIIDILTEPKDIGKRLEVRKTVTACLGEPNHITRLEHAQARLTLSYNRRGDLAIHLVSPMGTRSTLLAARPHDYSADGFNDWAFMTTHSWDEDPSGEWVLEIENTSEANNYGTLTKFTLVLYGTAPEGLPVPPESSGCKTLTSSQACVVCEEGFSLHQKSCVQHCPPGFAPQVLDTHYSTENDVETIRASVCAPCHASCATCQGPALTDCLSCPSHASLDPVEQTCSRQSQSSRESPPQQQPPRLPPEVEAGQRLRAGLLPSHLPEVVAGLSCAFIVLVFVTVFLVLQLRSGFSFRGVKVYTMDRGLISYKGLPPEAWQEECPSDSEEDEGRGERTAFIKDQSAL
Sequence of Proprotein convertase subtilisin/kexin type 5 (Q92824 whole entry): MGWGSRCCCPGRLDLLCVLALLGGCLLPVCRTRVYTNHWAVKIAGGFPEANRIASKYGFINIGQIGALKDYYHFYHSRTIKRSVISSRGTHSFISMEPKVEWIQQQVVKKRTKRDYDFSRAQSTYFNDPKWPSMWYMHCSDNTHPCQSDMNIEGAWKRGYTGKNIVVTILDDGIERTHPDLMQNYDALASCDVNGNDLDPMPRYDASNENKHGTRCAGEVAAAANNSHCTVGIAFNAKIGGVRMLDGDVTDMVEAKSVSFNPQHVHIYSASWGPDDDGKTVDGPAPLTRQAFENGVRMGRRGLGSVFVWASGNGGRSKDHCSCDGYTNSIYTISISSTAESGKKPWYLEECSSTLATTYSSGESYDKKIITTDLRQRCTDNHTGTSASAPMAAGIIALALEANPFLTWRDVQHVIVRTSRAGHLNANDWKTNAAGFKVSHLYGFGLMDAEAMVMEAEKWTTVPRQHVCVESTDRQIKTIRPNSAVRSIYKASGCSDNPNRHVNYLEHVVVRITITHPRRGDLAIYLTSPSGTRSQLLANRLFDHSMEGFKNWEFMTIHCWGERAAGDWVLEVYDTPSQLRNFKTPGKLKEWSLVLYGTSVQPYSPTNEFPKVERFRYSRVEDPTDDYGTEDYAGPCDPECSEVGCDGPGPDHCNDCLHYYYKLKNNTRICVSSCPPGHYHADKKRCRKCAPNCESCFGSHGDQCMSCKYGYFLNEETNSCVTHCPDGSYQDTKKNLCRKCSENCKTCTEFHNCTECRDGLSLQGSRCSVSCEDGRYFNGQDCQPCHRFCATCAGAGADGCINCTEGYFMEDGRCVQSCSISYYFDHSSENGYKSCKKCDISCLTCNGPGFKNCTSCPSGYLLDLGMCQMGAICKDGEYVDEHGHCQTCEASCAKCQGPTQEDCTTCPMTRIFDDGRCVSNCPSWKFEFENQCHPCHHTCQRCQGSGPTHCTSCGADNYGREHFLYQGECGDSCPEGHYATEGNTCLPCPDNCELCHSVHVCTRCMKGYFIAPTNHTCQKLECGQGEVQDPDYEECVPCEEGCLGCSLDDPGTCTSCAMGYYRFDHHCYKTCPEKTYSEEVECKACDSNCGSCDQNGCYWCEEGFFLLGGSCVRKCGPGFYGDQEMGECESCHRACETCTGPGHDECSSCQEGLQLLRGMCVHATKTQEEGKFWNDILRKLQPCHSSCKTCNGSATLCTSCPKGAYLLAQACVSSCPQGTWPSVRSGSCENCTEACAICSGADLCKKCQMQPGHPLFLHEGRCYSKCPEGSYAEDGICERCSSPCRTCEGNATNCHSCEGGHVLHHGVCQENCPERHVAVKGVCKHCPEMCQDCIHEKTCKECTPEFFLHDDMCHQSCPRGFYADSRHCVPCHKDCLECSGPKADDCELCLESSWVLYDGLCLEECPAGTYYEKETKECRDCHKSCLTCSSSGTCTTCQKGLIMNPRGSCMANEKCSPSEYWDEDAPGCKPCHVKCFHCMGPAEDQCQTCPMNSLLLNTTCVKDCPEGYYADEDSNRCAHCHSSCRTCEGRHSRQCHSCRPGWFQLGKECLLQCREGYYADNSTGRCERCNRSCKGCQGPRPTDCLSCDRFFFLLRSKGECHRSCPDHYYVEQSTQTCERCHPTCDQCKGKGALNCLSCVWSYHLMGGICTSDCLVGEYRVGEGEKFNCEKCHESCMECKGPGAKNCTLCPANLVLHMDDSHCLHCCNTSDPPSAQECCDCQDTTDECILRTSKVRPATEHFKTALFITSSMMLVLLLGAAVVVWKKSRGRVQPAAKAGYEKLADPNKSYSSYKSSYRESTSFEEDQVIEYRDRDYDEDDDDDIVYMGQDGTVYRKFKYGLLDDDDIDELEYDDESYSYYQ

Row | Molecule | Ki [5] [nM] | Ki [6] [nM] | Ki [7] [nM] | Ki [8] [nM] | Ki [9] [nM] | further results
1 | CNC(=O)[C@H](Cc1c[nH]c2ccccc12)NC(=O)[C@@H](CC(=O)NO)CC(C)C |  |  |  |  |  | Activity [1]: Active
2 | C[C@H](NC(=O)[C@H](CCCNC(=N)N)NC(=O)[C@@H]1CCCN1C(=O)[C@@H](NC(=O)CCN)[C@@H](C)O)C(=O)N[C@@H](CCCNC(=N)N)C(=O)N[C@@H](CCCNC(=N)N)C(=O)N[C@@H](CCCNC(=N)N)C(=O)N[C@@H](CCCCN)C(=O)N[C@@H](CCCCN)C(=O)N[C@@H](CCCNC(=N)N)C(=O)N[C@H](C(N)=O)[C@@H](C)O (H-[βAla]TPRARRRKKRT-NH2) |  |  |  |  |  | Survival [2]: 6.63 days; Activity [3]: 40%
3 | O=C(O)c1cn(C2CC2)c2cc(N3CCNCC3)c(F)cc2c1=O [CIPROFLOXACIN] |  |  |  |  |  | Survival [4]: 6 days
4 | H-TPQRARRRKKRF-OH | 602 | 38 | 772 | 806 | 1130 | 
5 | H-TPQRARRRKKRT-OH | 296 | 33 | 515 | 188 | 206 | 
6 | H-TPQRARRRKKRW-OH | 192 | 34 | 952 | 433 | 172 | 
7 | H-TPQRARRRKKRY-OH | 1020 | 47 | 624 | 649 | 1220 | 
8 | H-TPRARRRKKRI-NH2 | 267 | 30 | 562 | 492 | 135 | 
9 | H-TPRARRRKKRT-NH2 | 162 |  | 441 | 232 | 135 | Activity [10]: Active; Activity [11]: Non-toxic; Activity [12]: Active; survival at 12.5 mg/kg [13]: 60%; Activity [14]: Active; Activity [1]: Active
